Measurements reported in patent publication US12702660B2, “Method for treating cancer with an oral dosage form of an estrogen receptor-alpha inhibitor” (Eisai R&D Management Co., Ltd., priority 2019, dated 2026).
Read-outs that look alike come from different tables or passages of the source.

Assays:
Format in all cases: in vivo, human
[1] = system: locally advanced or metastatic ER+HER2−BC; test: Tumor response and progression-free survival, phase 1 dose escalation; details: as of 10 Dec. 2018; 32 patients, 100 to 450 mg/day
Ki67 = test: Pharmacodynamics: Ki67 levels post-treatment; details: across all dose levels post-treatment
Description: Methods were used to analyze whether H3B-6545 inactivates both wild-type and mutant ERα by targeting cysteine 530 and enforcing a unique antagonist conformation. Methods: Women with locally advanced or metastatic HR+BC are treated (tx) with H3B-6545 drug product administered once daily orally by capsule over a 28 day cycle after progression on at least one hormonal therapy and at least one additional therapy/regimen. Dose escalation uses a 3+3 design with the option to backfill previously cleared doses and allows for intrapatient dose escalation. This example explored the safety, pharmacokinetics and pharmacodynamics of H3B-6545 in women with HR+BC to identify a recommended subsequent dose for testing.

[2] = Plasma PK of 450 mg capsules in fasted and fed patients, dose expansion; details: 450 mg QD capsules; for CLss/F / AUC(0-inf) / Cmax / half-life / AUC(0-t) / Vd / Vd/F: Geometric Mean (GeoCV %); for Tlag / Tmax: Median (Min, Max); for AUC0-24 (per 1 mg of API) / AUC0-inf (per 1 mg of API) / AUC0-t (per 1 mg of API) / Cmax (per 1 mg of API): normalized from Table 13; for AUC(0-inf) / Cmax / half-life / AUC(0-t) / Vd / Vd/F / Tmax: human, plasma, oral, 450 mg; for Vd: read-out: Vss; for Vd/F: read-out: Vz/F
Description: Blood samples were collected at the planned time points from each patient and centrifuged. The plasma portion of each sample was then transferred to a K2EDTA tube, which was then shipped to a bioanalytical lab for concentration measurement using LC-MS/MS. The concentration data were then analyzed using Phoenix® WinNonlin software to obtain PK parameters. The obtained PK parameters were further summarized using analytical software.
Blood samples (approximately 5 mL each) were collected from human patients pre-dose and at various hourly time points post-dose. Plasma concentrations of H3B-6545 were determined using a validated high-performance liquid chromatography/tandem mass spectrometry (LC-MS/MS) method. The lower limit of quantification was 0.100 ng/mL.
The PK Analysis Set included subjects who received H3B-6545 drug product in capsules or tablets and had sufficient evaluable plasma concentration data to derive at least 1 primary PK parameter in each treatment. Plasma concentrations of H3B-6545 (as free base) were tabulated and summarized at each nominal time using descriptive statistics (number of subjects, arithmetic mean with standard deviation [SD], coefficient of variation [CV %], geometric mean, median, minimum, and maximum) as appropriate. Individual and mean (±SD) plasma concentration-time profiles were provided for each treatment.
Pharmacokinetic parameters of H3B-6545 were calculated using noncompartmental methods, using an appropriate model for plasma data and extravascular administration. The PK parameters included, but were not limited to, area under the curve to the time of the last quantifiable concentration (AUC0-t), maximum concentration (Cmax), and time at which the maximum concentration occurred (tmax). If data permitted, the area under the plasma concentration-time curve extrapolated to infinity (AUC0-inf), terminal elimination half-life (t1/2), apparent total body clearance (CL/F), total systemic clearance after oral administration at steady state (CLss/F), apparent volume of distribution during the terminal phase (Vz/F), apparent steady-state volume of distribution (Vss), accumulation ratio for Cmax (RCmax) and accumulation ratio of AUC0-24 (RAUC) were also derived.
Table 3 details PK parameters and profiles of human patients receiving capsules prepared as in Example 1. Patients received a total equivalent dosage of 450 mg of Formula I, as identified in Table 13. Table 14 has normalized the AUC0-t, AUC0-24, AUC0-inf and Cmax PK parameters illustrated in Table 13 to plasma PK parameters per 1 mg of active pharmaceutical ingredient (API).

Compound: CN(C)C(=O)/C=C/CNCCOc1ccc(/C(=C(/CC(F)(F)F)c2ccccc2)c2ccc3[nH]nc(F)c3c2)cn1 [H3B-6545, (E)-N,N-dimethyl-4-[2-[5-[(Z)-4,4,4-trifluoro-1-(3-fluoro-1H-indazol-5-yl)-2-phenylbut-1-enyl]pyridin-2-yl]oxyethylamino]but-2-enamide]
- Partial responses (PRs), patients [1]: 3 patients
- Stable disease, % of patients [1]: 47%
- patients who completed at least 6 months of treatment [1]: 34%
- decrease in Ki67 levels (Ki67): 50%
- CLss/F ([2]; Dose Expansion-Fasted): 36.7 (65.4); 18 L/h
- Tlag ([2]; Dose Expansion-Fasted): 0 (0-0); 18 h
- AUC0-24 (per 1 mg of API) ([2]; Dose Expansion-Fasted): 27.2 ng·h/mL/mg
- AUC0-inf (per 1 mg of API) ([2]; Dose Expansion-Fasted): 36.6 ng·h/mL/mg
- AUC0-t (per 1 mg of API) ([2]; Dose Expansion-Fasted): 27.7 ng·h/mL/mg
- Cmax (per 1 mg of API) ([2]; Dose Expansion-Fasted): 2.4 ng/mL/mg
- CLss/F ([2]; Dose Expansion-Fed): 20.5 (42.7); 13 L/h
- Tlag ([2]; Dose Expansion-Fed): 0 (0-0); 17 h
- AUC0-24 (per 1 mg of API) ([2]; Dose Expansion-Fed): 43.3 ng·h/mL/mg
- AUC0-inf (per 1 mg of API) ([2]; Dose Expansion-Fed): 56.8 ng·h/mL/mg
- AUC0-t (per 1 mg of API) ([2]; Dose Expansion-Fed): 35.8 ng·h/mL/mg
- Cmax (per 1 mg of API) ([2]; Dose Expansion-Fed): 3.5 ng/mL/mg
- AUC(0-inf) ([2]; Dose Expansion-Fasted): 16500 ng·h/mL
- Cmax ([2]; Dose Expansion-Fasted): 1090 ng/mL
- half-life ([2]; Dose Expansion-Fasted): 10.9 h
- AUC(0-t) ([2]; Dose Expansion-Fasted, read-out: AUC0-24): 12300 ng·h/mL
- AUC(0-t) ([2]; Dose Expansion-Fasted, read-out: AUC0-t): 12500 ng·h/mL
- Vd ([2]; Dose Expansion-Fasted): 597 L
- Vd/F ([2]; Dose Expansion-Fasted): 566 L
- Tmax ([2]; Dose Expansion-Fasted): 4 h
- AUC(0-inf) ([2]; Dose Expansion-Fed): 25500 ng·h/mL
- Cmax ([2]; Dose Expansion-Fed): 1560 ng/mL
- half-life ([2]; Dose Expansion-Fed): 8.83 h
- AUC(0-t) ([2]; Dose Expansion-Fed, read-out: AUC0-24): 19500 ng·h/mL
- AUC(0-t) ([2]; Dose Expansion-Fed, read-out: AUC0-t): 16100 ng·h/mL
- Vd ([2]; Dose Expansion-Fed): 350 L
- Vd/F ([2]; Dose Expansion-Fed): 279 L
- Tmax ([2]; Dose Expansion-Fed): 6 h
